Data: PubChem BioAssay AID270 (DTP/NCI, 2004)
“And” between values parts separate entries of the source, which are not always exact repeats. Identical values can stand only once. Results filed as inconclusive are left out.

Test system: BDF1 mice, s.c. Lewis lung carcinoma, T/C %
Test: NCI In Vivo Anticancer Drug Screen. Data for tumor model Lewis Lung Carcinoma (subcutaneous) in B6D2F1 (BDF1) mice
Outline: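 Readout: survival or tumor size, expressed as treated (T) over vehicle control (C). Transplantable tumor implanted in mice; compound given to the treated group.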

COc1cc2c(c(OC)c1OC)-c1ccc(OC)c(=O)cc1[C@@H](NC(C)=O)CC2
T/C (endpoint: mean tumor weight, dose: 0.06 mg/kg/injection, schedule: Q01DX011 (ip), vehicle: saline, higher = larger tumour): 65 % of control
T/C (endpoint: mean tumor weight, dose: 0.12 mg/kg/injection, schedule: Q01DX011 (ip), vehicle: saline, higher = larger tumour): 61 % of control
T/C (endpoint: mean tumor weight, dose: 0.25 mg/kg/injection, schedule: Q01DX011 (ip), vehicle: saline, higher = larger tumour): 46 % of control
T/C (endpoint: median survival time, dose: 0.13 mg/kg/injection, schedule: Q01DX009 (ip), vehicle: saline, higher = longer survival): 100 % of control
T/C (endpoint: median survival time, dose: 0.25 mg/kg/injection, schedule: Q01DX009 (ip), vehicle: saline, higher = longer survival): 98 % of control
T/C (endpoint: median survival time, dose: 0.5 mg/kg/injection, schedule: Q01DX009 (ip), vehicle: saline, higher = longer survival): 99 % of control
T/C (endpoint: median survival time, dose: 63.0 micrograms/kg/injection, schedule: Q01DX009 (ip), vehicle: saline, higher = longer survival): 103 % of control
T/C (endpoint: median survival time, dose: 125.0 micrograms/kg/injection, schedule: Q01DX009 (ip), vehicle: saline, higher = longer survival): 106 % of control
T/C (endpoint: median survival time, dose: 250.0 micrograms/kg/injection, schedule: Q01DX009 (ip), vehicle: saline, higher = longer survival): 108 % of control
T/C (endpoint: median survival time, dose: 500.0 micrograms/kg/injection, schedule: Q01DX009 (ip), vehicle: saline, higher = longer survival): 108 % of control
T/C (endpoint: median survival time, dose: 1000.0 micrograms/kg/injection, schedule: Q01DX009 (ip), vehicle: saline, higher = longer survival): 91 % of control

O=C1C=CC2(CCC23C=CC(=O)O3)O1 (centres undefined)
T/C (endpoint: mean tumor weight, dose: 13.0 mg/kg/injection, schedule: Q01DX011 (ip), vehicle: saline, higher = larger tumour): 102 % of control
T/C (endpoint: mean tumor weight, dose: 30.0 mg/kg/injection, schedule: Q01DX011 (ip), vehicle: saline, higher = larger tumour): 85 % of control
T/C (endpoint: mean tumor weight, dose: 45.0 mg/kg/injection, schedule: Q01DX011 (ip), vehicle: saline, higher = larger tumour): 80 % of control and 83 % of control
T/C (endpoint: mean tumor weight, dose: 65.0 mg/kg/injection, schedule: Q01DX011 (ip), vehicle: saline, higher = larger tumour): 66 % of control

N=[N+]=CC(=O)CCC(NC(=O)C(CCC(=O)C=[N+]=N)NC(=O)CCC(N)C(=O)O)C(=O)O (centres undefined)
T/C (endpoint: mean tumor weight, dose: 0.06 mg/kg/injection, schedule: Q01DX011 (ip), vehicle: water, higher = larger tumour): 103 % of control
T/C (endpoint: mean tumor weight, dose: 0.12 mg/kg/injection, schedule: Q01DX011 (ip), vehicle: water, higher = larger tumour): 34 % of control
T/C (endpoint: mean tumor weight, dose: 0.25 mg/kg/injection, schedule: Q01DX011 (ip), vehicle: water, higher = larger tumour): 17 % of control
T/C (endpoint: median survival time, dose: 0.1 mg/kg/injection, schedule: Q01DX011 (ip), vehicle: other, higher = longer survival): 120 % of control
T/C (endpoint: median survival time, dose: 0.2 mg/kg/injection, schedule: Q01DX011 (ip), vehicle: other, higher = longer survival): 89 % of control
T/C (endpoint: median survival time, dose: 0.4 mg/kg/injection, schedule: Q01DX011 (ip), vehicle: other, higher = longer survival): 116 % of control
T/C (endpoint: median survival time, dose: 0.8 mg/kg/injection, schedule: Q01DX011 (ip), vehicle: other, higher = longer survival): 107 % of control
T/C (endpoint: median survival time, dose: 1.6 mg/kg/injection, schedule: Q01DX011 (ip), vehicle: other, higher = longer survival): 101 % of control

CCOC(=O)[C@H]1CCC[C@@H](NC(=O)N(CCCl)N=O)C1
T/C (endpoint: median tumor weight (est.), dose: 20.0 mg/kg/injection, schedule: Q01DX001 (ip), vehicle: gum acacia, higher = larger tumour): 55 % of control
T/C (endpoint: median tumor weight (est.), dose: 30.0 mg/kg/injection, schedule: Q01DX001 (ip), vehicle: gum acacia, higher = larger tumour): 34 % of control

CCCCCCCCCCCCCCCCC(C(=O)O)C(O)(CC(=O)O)C(=O)O (centres undefined)
T/C (endpoint: mean tumor weight, dose: 22.0 mg/kg/injection, schedule: Q01DX011 (ip), vehicle: carboxymethylcellulose (CMC), higher = larger tumour): 64 % of control
T/C (endpoint: mean tumor weight, dose: 35.0 mg/kg/injection, schedule: Q01DX011 (ip), vehicle: carboxymethylcellulose (CMC), higher = larger tumour): 68 % of control
T/C (endpoint: mean tumor weight, dose: 50.0 mg/kg/injection, schedule: Q01DX011 (ip), vehicle: carboxymethylcellulose (CMC), higher = larger tumour): 46 % of control

COc1cccc(/C=N/NC(=O)c2ccccc2N2CCCC2)c1O
T/C (endpoint: median survival time, dose: 100.0 mg/kg/injection, schedule: Q01DX009 (ip), vehicle: olive oil, sesame oil, peanut oil, higher = longer survival): 90 % of control

OC(C1CO1)C(O)C1CO1 (centres undefined)
T/C (endpoint: mean tumor weight (est.), dose: 1.0 mg/kg/injection, schedule: Q01DX009 (ip), vehicle: saline, higher = larger tumour): 73 % of control
T/C (endpoint: mean tumor weight (est.), dose: 1.0 mg/kg/injection, schedule: Q04DX003 (ip), vehicle: saline, higher = larger tumour): 65 % of control
T/C (endpoint: mean tumor weight (est.), dose: 2.0 mg/kg/injection, schedule: Q01DX009 (ip), vehicle: saline, higher = larger tumour): 46 % of control
T/C (endpoint: mean tumor weight (est.), dose: 2.0 mg/kg/injection, schedule: Q04DX003 (ip), vehicle: saline, higher = larger tumour): 45 % of control
T/C (endpoint: mean tumor weight (est.), dose: 4.0 mg/kg/injection, schedule: Q04DX003 (ip), vehicle: saline, higher = larger tumour): 63 % of control
T/C (endpoint: median survival time, dose: 1.0 mg/kg/injection, schedule: Q01DX009 (ip), vehicle: saline, higher = longer survival): 95 % of control
T/C (endpoint: median survival time, dose: 1.0 mg/kg/injection, schedule: Q04DX003 (ip), vehicle: saline, higher = longer survival): 104 % of control
T/C (endpoint: median survival time, dose: 2.0 mg/kg/injection, schedule: Q01DX009 (ip), vehicle: saline, higher = longer survival): 117 % of control
T/C (endpoint: median survival time, dose: 2.0 mg/kg/injection, schedule: Q04DX003 (ip), vehicle: saline, higher = longer survival): 104 % of control
T/C (endpoint: median survival time, dose: 4.0 mg/kg/injection, schedule: Q04DX003 (ip), vehicle: saline, higher = longer survival): 123 % of control
